Experiment: recombinant barcode read abundance after kanamycin selection (control-corrected) (log10(CPM+1)); higher = more efficient recombination; sequences stand for … in AGTGCAGAGAAAATCGGCCAGTTTTCTCTGCCTGCAGTCCGCATGCCGT…AGATTTATGCAGCGGACTGCCTTTCTCCCAAAGTGATAAACCGGACAGTATCATGGACCGGTTTTCCCGGTAATCCGTATTTGCAAGGTTGGTTTCACT; site = the 11-nt target
Procedure, shortened: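 Recombination efficiency in this pooled E. coli screen uses counts per million of barcodes at recombinant junctions, averaged and corrected against the control. The reported form is log10(CPM+1). Two replicates were plated on chloramphenicol/ampicillin LB agar as control and two on chloramphenicol/ampicillin/kanamycin with 0.1 mM IPTG.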
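Further: IS621 recombinase and bridge RNA in Escherichia coli cells.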

Sequence	recombinant barcode read abundance (log10)
TGATCTACTTGGGTTCTAACCTGTTGCTT (site TGTTCTACTAA)	0.0588
TGCAAGTCTTGGGTTCTAACCTGTTGCCT (site TGCAAGTCTAG)	0.361
TGCAAGTCTTGGGTTCTAACCTGTTGCCT (site TGCGAGTCTAG)	0.137
TGCACCTCTTGGGTTCTAACCTGTTGCTA (site CAATAGACTAG)	0.0267
TGCACCTCTTGGGTTCTAACCTGTTGCTA (site TGCACCTCTTA)	0.541
TGCCAATCTTGGGTTCTAACCTGTTGCCT (site TGCCAATCTAG)	0.242
TGCCAATCTTGGGTTCTAACCTGTTGCCT (site TTCCAATCTTG)	0.0187
TGCCATCCTTGGGTTCTAACCTGTTGCAT (site AGCCATCCTAT)	0.111
TGCCATCCTTGGGTTCTAACCTGTTGCAT (site TGCCATCCTAT)	0.544
TGCCTCTCTTGGGTTCTAACCTGTTGCCT (site GGCTTCTCTAG)	0.0915
TGCCTCTCTTGGGTTCTAACCTGTTGCCT (site TGCCTCTCTAG)	0.172
TGCCTGCCTTGGGTTCTAACCTGTTGCAG (site ATAGAATCTGA)	0.245
TGCCTGCCTTGGGTTCTAACCTGTTGCAG (site TGCCTGCCTCT)	0.0105
TGCGAGTCTTGGGTTCTAACCTGTTGCCT (site TGCAAGTCTAG)	0.626
TGCGAGTCTTGGGTTCTAACCTGTTGCCT (site TGCGAGTCTAG)	1.12
TGCGCCACTTGGGTTCTAACCTGTTGCCT (site TGCGCAACTAG)	0.113
TGCGCCACTTGGGTTCTAACCTGTTGCCT (site TGCGCCACTAG)	0.517
TGCGCCACTTGGGTTCTAACCTGTTGCCT (site TGCGCGACTAG)	0.0341
TGCGCCACTTGGGTTCTAACCTGTTGCCT (site TGCGCTACTAG)	0.0797
TGCGTCACTTGGGTTCTAACCTGTTGCGT (site TGCGTCACTAC)	1.56
TGCGTCACTTGGGTTCTAACCTGTTGCGT (site TGCGTTCCTAC)	0.0906
TGCGTCGCTTGGGTTCTAACCTGTTGCCT (site AGCGTCGCTAG)	0.149

Sequence	recombinant barcode read abundance (log10)
TGCGTCGCTTGGGTTCTAACCTGTTGCCT (site TGCGTCGCTAG)	0.687
TGCTAAGCTTGGGTTCTAACCTGTTGCTG (site TCCTAAGCTCC)	0.288
TGCTAAGCTTGGGTTCTAACCTGTTGCTG (site TGCTAAGCTCA)	0.16
TGCTACCCTTGGGTTCTAACCTGTTGCCT (site TACTACCCTAG)	0.81
TGCTACCCTTGGGTTCTAACCTGTTGCCT (site TCCTACCCTAG)	0.367
TGCTACCCTTGGGTTCTAACCTGTTGCCT (site TGCTACCCTAG)	0.427
TGCTACCCTTGGGTTCTAACCTGTTGCCT (site TTCTACCCTAG)	0.213
TGCTGATCTTGGGTTCTAACCTGTTGCCT (site AGCTGATCTAG)	0.114
TGCTGATCTTGGGTTCTAACCTGTTGCCT (site CGCTGATCTAG)	0.159
TGCTGATCTTGGGTTCTAACCTGTTGCCT (site GGCTGATCTAG)	0.158
TGCTGATCTTGGGTTCTAACCTGTTGCCT (site TGCTGATCTAG)	0.335
TGCTGTACTTGGGTTCTAACCTGTTGCCT (site TGCTGTACTAG)	0
TGCTGTACTTGGGTTCTAACCTGTTGCCT (site TGCTGTCCTAG)	0.0484
TGCTGTACTTGGGTTCTAACCTGTTGCCT (site TGCTGTGCTAG)	0.0772
TGCTGTACTTGGGTTCTAACCTGTTGCCT (site TGCTGTTCTAG)	0.0131
TGCTGTTCTTGGGTTCTAACCTGTTGCCT (site TGCTGTACTAG)	0.0922
TGCTGTTCTTGGGTTCTAACCTGTTGCCT (site TGCTGTCCTAG)	0.212
TGCTGTTCTTGGGTTCTAACCTGTTGCCT (site TGCTGTGCTAG)	0.241
TGCTGTTCTTGGGTTCTAACCTGTTGCCT (site TGCTGTTCTAG)	0.187
TGCTTACCTTGGGTTCTAACCTGTTGCCT (site AGCTTACCTAG)	0.0889
TGCTTACCTTGGGTTCTAACCTGTTGCCT (site CGCTTACCTAG)	0.332
TGCTTACCTTGGGTTCTAACCTGTTGCCT (site GGCTTACCTAG)	0.185

Sequence	recombinant barcode read abundance (log10)
TGCTTACCTTGGGTTCTAACCTGTTGCCT (site TGCTTACCTAG)	0.282
TGGAAGTCTTGGGTTCTAACCTGTTGCTT (site TGAAAGCCTAA)	0
TGGAAGTCTTGGGTTCTAACCTGTTGCTT (site TGGAAGTCTAA)	0.418
TGGAATTCTTGGGTTCTAACCTGTTGCTT (site TGGAATTCTAA)	0.0863
TGGAATTCTTGGGTTCTAACCTGTTGCTT (site TGGACTTCTAA)	0.0255
TGGACCACTTGGGTTCTAACCTGTTGCCT (site TGGAACACTAG)	0.0728
TGGACCACTTGGGTTCTAACCTGTTGCCT (site TGGACCACTAG)	0.765
TGGACCACTTGGGTTCTAACCTGTTGCCT (site TGGAGCACTAG)	0.0755
TGGACCACTTGGGTTCTAACCTGTTGCCT (site TGGATCACTAG)	0.0342
TGGACTACTTGGGTTCTAACCTGTTGCTC (site CTACAACCTCT)	0.209
TGGACTACTTGGGTTCTAACCTGTTGCTC (site TGGACTACTGA)	0.195
TGGACTTCTTGGGTTCTAACCTGTTGCTG (site TGGACTTCTCA)	0.0836
TGGACTTCTTGGGTTCTAACCTGTTGCTG (site TGGACTTCTGA)	0.215
TGGAGCCCTTGGGTTCTAACCTGTTGCAG (site TGGAGCCCTAT)	0.13
TGGAGCCCTTGGGTTCTAACCTGTTGCAG (site TGGAGCCCTCT)	0.484
TGGAGCCCTTGGGTTCTAACCTGTTGCAG (site TGGAGCCCTGT)	0.336
TGGAGCCCTTGGGTTCTAACCTGTTGCAG (site TGGAGCCCTTT)	0.0206
TGGAGTACTTGGGTTCTAACCTGTTGCCT (site TGGAGTACTAG)	0.874
TGGAGTACTTGGGTTCTAACCTGTTGCCT (site TGGCGTACTAG)	0.0846
TGGAGTACTTGGGTTCTAACCTGTTGCCT (site TGGGGTACTAG)	0.146
TGGAGTACTTGGGTTCTAACCTGTTGCCT (site TGGTGTACTAG)	0
TGGAGTCCTTGGGTTCTAACCTGTTGCCT (site TGGAGTCCTAG)	1.11

Sequence	recombinant barcode read abundance (log10)
TGGAGTCCTTGGGTTCTAACCTGTTGCCT (site TGGCGTCCTAG)	0.0977
TGGAGTCCTTGGGTTCTAACCTGTTGCCT (site TGGGGTCCTAG)	0.548
TGGAGTCCTTGGGTTCTAACCTGTTGCCT (site TGGTGTCCTAG)	0.0821
TGGATGGCTTGGGTTCTAACCTGTTGCCT (site GGGATGGCTAG)	0.149
TGGATGGCTTGGGTTCTAACCTGTTGCCT (site TGGATGGCTAG)	0.17
TGGCAGGCTTGGGTTCTAACCTGTTGCCT (site TGGCAGACTAG)	0.0119
TGGCAGGCTTGGGTTCTAACCTGTTGCCT (site TGGCAGCCTAG)	0.00869
TGGCAGGCTTGGGTTCTAACCTGTTGCCT (site TGGCAGGCTAG)	0.64
TGGCAGGCTTGGGTTCTAACCTGTTGCCT (site TGGCAGTCTAG)	0.0352
TGGCAGTCTTGGGTTCTAACCTGTTGCCT (site TGGCAGACTAG)	0.207
TGGCAGTCTTGGGTTCTAACCTGTTGCCT (site TGGCAGCCTAG)	0.0447
TGGCAGTCTTGGGTTCTAACCTGTTGCCT (site TGGCAGGCTAG)	0.272
TGGCAGTCTTGGGTTCTAACCTGTTGCCT (site TGGCAGTCTAG)	0.413
TGGCATCCTTGGGTTCTAACCTGTTGCGT (site AACAGGGCTCG)	0.0723
TGGCATCCTTGGGTTCTAACCTGTTGCGT (site TGGCATCCTAC)	2.53
TGGCCACCTTGGGTTCTAACCTGTTGCCT (site CGGCCACCTAG)	0.115
TGGCCACCTTGGGTTCTAACCTGTTGCCT (site TGGCCACCTAG)	1.6
TGGCCCTCTTGGGTTCTAACCTGTTGCTT (site TGGCCCTCTAA)	1.63
TGGCCCTCTTGGGTTCTAACCTGTTGCTT (site TGGCCCTCTCA)	0.293
TGGCCCTCTTGGGTTCTAACCTGTTGCTT (site TGGCCCTCTGA)	0.52

From the supplement of paper PMC11208160
